The subject of one data set is plasma enzymes. Briefly: half-life of prodrug ester in plasma (hydrolysis by plasma enzymes). As to conditions: plasma.
Data set [1] can be described thus: stability against chemical hydrolysis in pH solutions. It is filed as physicochemical.
The nature of data set [2]: half-life of prodrug ester in plasma (hydrolysis by plasma enzymes). As to conditions: in plasma at physiologic pH.
The conditions of data set [3]: cited from earlier work.

Usually half-life stands for the time in which the quantity being followed falls by half.

Like-named read-outs stand apart in the source and are kept apart here.

As to `Cc1cccc(Nc2ccccc2C(=O)OCCOC(=O)N2CCOCC2)c1C` [2-[(2,3-Dimethylphenyl)amino]-benzoic acid morpholinocarbonyloxyethyl ester], the half-life is 0.333 h in the data set on plasma enzymes; 7.6 h in data set [1] (pH 1.0 solution, pH 1, 1.0 pH solution, read-out: half life in a 1.0 pH solution (converted)); 66 h in data set [1] (pH 7.4 solution, pH 7.4, 7.4 pH solution, read-out: half life in a 7.4 pH solution (converted)).

Turning to `O=C(Cc1ccccc1Nc1c(Cl)cccc1Cl)OCCOC(=O)N1CCOCC1` [2-[(2,6-Dichlorophenyl])amino]benzene-acetic acid morpholinocarbonyloxyethyl ester], the half-life in plasma in data set [2] stood at 0.35 h. The “half life in a 1.0 pH solution” value in data set [1] (1.0 pH solution) was 8 hours. The “half life in a 7.4 pH solution” value in data set [1] (7.4 pH solution) was determined as 47 hours.

`O=C(Oc1ccccc1C(=O)O)c1ccccc1O` [Salsalate, salsalate]: in data set [3], the “solubility at normal acidic gastric pH” value is on record as “insoluble”.

(Values after patent US20050004118A1, “Prodrugs of non-steroidal anti-inflammatory and carboxylic acid containing compounds” (priority 2000, published 2005).)
